Measurements published in patent publication US8952024B2, “Herbicidal pyrimidone derivatives” (E I du Pont de Nemours and Company, priority 2009, dated 2015).
Read-outs that look alike come from different tables or passages of the source.

Tests used:
Assay in all cases: Test B pre-/postemergence plant response
Format in all cases: in vivo
[1] = system: nightshade (eastern black nightshade, Solanum ptycanthum); conditions: Preemergence
Procedure, shortened: (§1)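 Greenhouse herbicide screen. Pre- and postemergence (1- to 4-leaf) spray of compound in solvent/surfactant mixture; loam–sand soil for pre, peat/vermiculite medium for post. Visual control rating 0–100 at 13 to 15 days after treatment.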

[2] = system: sunflower (common oilseed sunflower, Helianthus annuus); conditions: Preemergence
Procedure, shortened: as §1

[3] = system: pigweed (Amaranthus retroflexus); conditions: for pest or weed control at 31 g/ha: 31 g ai/ha; for pest or weed control at 125 g/ha: 125 g ai/ha
Procedure, shortened: as §1

[4] = system: Italian ryegrass (Lolium multiflorum); conditions: for pest or weed control at 125 g/ha: 125 g ai/ha
Procedure, shortened: as §1

corn (Zea mays) = conditions: for Corn plant response rating (crop injury, 0 = no effect, 100 = complete kill) at 31 g/ha: 31 g ai/ha; for Corn plant response rating (crop injury, 0 = no effect, 100 = complete kill) at 125 g/ha: 125 g ai/ha
Procedure, shortened: as §1

[5] = system: lambsquarters (Chenopodium album); conditions: for pest or weed control at 31 g/ha: 31 g ai/ha; for pest or weed control at 125 g/ha: 125 g ai/ha
Procedure, shortened: as §1

[6] = system: woolly cupgrass (Eriochloa villosa); conditions: for pest or weed control at 31 g/ha: 31 g ai/ha; for pest or weed control at 125 g/ha: 125 g ai/ha
Procedure, shortened: as §1

[7] = system: galium (catchweed bedstraw, Galium aparine); conditions: Preemergence
Procedure, shortened: as §1

[8] = system: goosegrass (Eleusine indica); conditions: for pest or weed control at 31 g/ha: 31 g ai/ha; for pest or weed control at 125 g/ha: 125 g ai/ha
Procedure, shortened: as §1

[9] = system: Surinam grass (Brachiaria decumbens); conditions: for pest or weed control at 125 g/ha: 125 g ai/ha
Procedure, shortened: as §1

[10] = system: large crabgrass (Digitaria sanguinalis); conditions: for pest or weed control at 31 g/ha: 31 g ai/ha; for pest or weed control at 125 g/ha: 125 g ai/ha
Procedure, shortened: as §1

[11] = 31 g ai/ha, scale 0 to 100 (0 no effect, 100 complete control)
[12] = 62 g ai/ha, scale 0 to 100, 0 no effect, 100 complete control
[13] = 125 g ai/ha, scale 0 to 100, 0 no effect, 100 complete control
[14] = 62 g ai/ha, postemergence, 0 is no effect, 100 is complete control, 13 to 15 days
[15] = Preemergence, 250 g ai/ha, 0 to 100 scale

SMILES: O=C1CCCC(O)=C1C(=O)c1cnc(-c2cccnc2)n(-c2ccccc2)c1=O [Compound 113, 5-[(2-hydroxy-6-oxo-1-cyclohexen-1-yl)carbonyl]-3-phenyl-2-(3-pyridinyl)-4(3H)-pyrimidone]
- Plant response rating, Nightshade [1, 11]: 98
- Plant response rating, Nightshade [1, 12]: 98
- Plant response rating, Nightshade [1, 13]: 100
- Nightshade plant response rating ([1]; 250 g ai/ha, 0 to 100 scale): 100
- Plant response rating, Sunflower [2, 11]: 75
- Plant response rating, Sunflower [2, 12]: 80
- Plant response rating, Sunflower [2, 13]: 90
- Sunflower plant response rating ([2]; 250 g ai/ha, 0 to 100 scale): 95
- Pigweed plant response rating (0 to 100 scale) [3, 14]: 100
- pest or weed control at 31 g/ha ([3]; Amaranthus retroflexus, post-emergence, postemergence, scale 0 to 100, 0 is no effect, 100 is complete control, read-out: Plant response rating, Pigweed): 95%
- pest or weed control at 125 g/ha ([3]; Amaranthus retroflexus, post-emergence, Postemergence, scale 0 to 100 (0 no effect, 100 complete control), read-out: Plant response rating, Pigweed): 100%
- pest or weed control at 250 g/ha ([3]; Amaranthus retroflexus, post-emergence, Postemergence, 250 g ai/ha, scale 0 to 100 (0 no effect, 100 complete control), read-out: Plant response rating, Pigweed): 100%
- pest or weed control at 31 g/ha ([3]; Amaranthus retroflexus, pre-emergence, Preemergence, scale 0 to 100 (0 no effect, 100 complete control), read-out: Plant response rating, Pigweed): 98%
- pest or weed control at 62 g/ha ([3]; Amaranthus retroflexus, pre-emergence, Preemergence, 62 g ai/ha, scale 0 to 100 (0 no effect, 100 complete control), read-out: Plant response rating, Pigweed): 98%
- pest or weed control at 125 g/ha ([3]; Amaranthus retroflexus, pre-emergence, Preemergence, scale 0 to 100, 0 no effect, 100 complete control, read-out: Plant response rating, Pigweed): 100%
- Pigweed plant response rating [3, 15]: 100
- Ryegrass, Italian plant response rating (0 to 100 scale) [4, 14]: 45
- pest or weed control at 125 g/ha ([4]; Lolium multiflorum, post-emergence, Postemergence, scale 0 to 100 (0 no effect, 100 complete control), read-out: Plant response rating, Ryegrass, Italian): 50%
- pest or weed control at 250 g/ha ([4]; Lolium multiflorum, post-emergence, Postemergence, 250 g ai/ha, scale 0 to 100 (0 no effect, 100 complete control), read-out: Plant response rating, Ryegrass, Italian): 85%
- pest or weed control at 31 g/ha ([4]; Lolium multiflorum, pre-emergence, Preemergence, 31 g ai/ha, scale 0 to 100 (0 no effect, 100 complete control), read-out: Plant response rating, Ryegrass, Italian): 0%
- pest or weed control at 62 g/ha ([4]; Lolium multiflorum, pre-emergence, Preemergence, 62 g ai/ha, scale 0 to 100 (0 no effect, 100 complete control), read-out: Plant response rating, Ryegrass, Italian): 5%
- pest or weed control at 125 g/ha ([4]; Lolium multiflorum, pre-emergence, Preemergence, scale 0 to 100, 0 no effect, 100 complete control, read-out: Plant response rating, Ryegrass, Italian): 5%
- Ryegrass, Italian plant response rating [4, 15]: 40
- Corn plant response rating (0 to 100 scale) (corn (Zea mays); [14]): 60
- Corn plant response rating (corn (Zea mays); [15]): 0
- Corn plant response rating (crop injury, 0 = no effect, 100 = complete kill) at 31 g/ha (corn (Zea mays); Zea mays, post-emergence, postemergence, scale 0 to 100, 0 is no effect, 100 is complete control): 25%
- Corn plant response rating (crop injury, 0 = no effect, 100 = complete kill) at 125 g/ha (corn (Zea mays); Zea mays, post-emergence, Postemergence, scale 0 to 100 (0 no effect, 100 complete control)): 80%
- Corn plant response rating (crop injury, 0 = no effect, 100 = complete kill) at 250 g/ha (corn (Zea mays); Zea mays, post-emergence, Postemergence, 250 g ai/ha, scale 0 to 100 (0 no effect, 100 complete control)): 85%
- Corn plant response rating (crop injury, 0 = no effect, 100 = complete kill) at 31 g/ha (corn (Zea mays); Zea mays, pre-emergence, Preemergence, scale 0 to 100 (0 no effect, 100 complete control)): 0%
- Corn plant response rating (crop injury, 0 = no effect, 100 = complete kill) at 62 g/ha (corn (Zea mays); Zea mays, pre-emergence, Preemergence, 62 g ai/ha, scale 0 to 100, 0 no effect, 100 complete control): 0%
- Corn plant response rating (crop injury, 0 = no effect, 100 = complete kill) at 125 g/ha (corn (Zea mays); Zea mays, pre-emergence, Preemergence, scale 0 to 100, 0 no effect, 100 complete control): 0%
- Lambsquarters plant response rating (0 to 100 scale) [5, 14]: 98
- pest or weed control at 31 g/ha ([5]; Chenopodium album, post-emergence, postemergence, scale 0 to 100, 0 is no effect, 100 is complete control, read-out: Plant response rating, Lambsquarters): 95%
- pest or weed control at 125 g/ha ([5]; Chenopodium album, post-emergence, Postemergence, scale 0 to 100 (0 no effect, 100 complete control), read-out: Plant response rating, Lambsquarters): 98%
- pest or weed control at 250 g/ha ([5]; Chenopodium album, post-emergence, Postemergence, 250 g ai/ha, scale 0 to 100 (0 no effect, 100 complete control), read-out: Plant response rating, Lambsquarters): 98%
- pest or weed control at 31 g/ha ([5]; Chenopodium album, pre-emergence, Preemergence, scale 0 to 100 (0 no effect, 100 complete control), read-out: Plant response rating, Lambsquarters): 98%
- pest or weed control at 62 g/ha ([5]; Chenopodium album, pre-emergence, Preemergence, 62 g ai/ha, scale 0 to 100, 0 no effect, 100 complete control, read-out: Plant response rating, Lambsquarters): 100%
- pest or weed control at 125 g/ha ([5]; Chenopodium album, pre-emergence, Preemergence, scale 0 to 100, 0 no effect, 100 complete control, read-out: Plant response rating, Lambsquarters): 100%
- Lambsquarters plant response rating [5, 15]: 100
- Cupgrass, Woolly plant response rating (0 to 100 scale) [6, 14]: 85
- pest or weed control at 31 g/ha ([6]; Eriochloa villosa, post-emergence, postemergence, scale 0 to 100, 0 is no effect, 100 is complete control, read-out: Plant response rating, Cupgrass, Woolly): 85%
- pest or weed control at 125 g/ha ([6]; Eriochloa villosa, post-emergence, Postemergence, scale 0 to 100 (0 no effect, 100 complete control), read-out: Plant response rating, Cupgrass, Woolly): 95%
- pest or weed control at 250 g/ha ([6]; Eriochloa villosa, post-emergence, Postemergence, 250 g ai/ha, scale 0 to 100 (0 no effect, 100 complete control), read-out: Plant response rating, Cupgrass, Woolly): 95%
- pest or weed control at 31 g/ha ([6]; Eriochloa villosa, pre-emergence, Preemergence, scale 0 to 100 (0 no effect, 100 complete control), read-out: Plant response rating, Cupgrass, Woolly): 5%
- pest or weed control at 62 g/ha ([6]; Eriochloa villosa, pre-emergence, Preemergence, 62 g ai/ha, scale 0 to 100, 0 no effect, 100 complete control, read-out: Plant response rating, Cupgrass, Woolly): 50%
- pest or weed control at 125 g/ha ([6]; Eriochloa villosa, pre-emergence, Preemergence, scale 0 to 100, 0 no effect, 100 complete control, read-out: Plant response rating, Cupgrass, Woolly): 85%
- Cupgrass, Woolly plant response rating [6, 15]: 95
- Plant response rating, Galium [7, 11]: 50
- Plant response rating, Galium [7, 12]: 70
- Plant response rating, Galium [7, 13]: 85
- Galium plant response rating ([7]; 250 g ai/ha, 0 to 100 scale): 95
- Goosegrass plant response rating (0 to 100 scale) [8, 14]: 75
- pest or weed control at 31 g/ha ([8]; Eleusine indica, post-emergence, postemergence, scale 0 to 100, 0 is no effect, 100 is complete control, read-out: Plant response rating, Goosegrass): 70%
- pest or weed control at 125 g/ha ([8]; Eleusine indica, post-emergence, Postemergence, scale 0 to 100 (0 no effect, 100 complete control), read-out: Plant response rating, Goosegrass): 85%
- pest or weed control at 250 g/ha ([8]; Eleusine indica, post-emergence, Postemergence, 250 g ai/ha, scale 0 to 100 (0 no effect, 100 complete control), read-out: Plant response rating, Goosegrass): 90%
- pest or weed control at 31 g/ha ([8]; Eleusine indica, pre-emergence, Preemergence, scale 0 to 100 (0 no effect, 100 complete control), read-out: Plant response rating, Goosegrass): 75%
- pest or weed control at 62 g/ha ([8]; Eleusine indica, pre-emergence, Preemergence, 62 g ai/ha, scale 0 to 100, 0 no effect, 100 complete control, read-out: Plant response rating, Goosegrass): 90%
- pest or weed control at 125 g/ha ([8]; Eleusine indica, pre-emergence, Preemergence, scale 0 to 100, 0 no effect, 100 complete control, read-out: Plant response rating, Goosegrass): 100%
- Goosegrass plant response rating [8, 15]: 100
- Surinam Grass plant response rating (0 to 100 scale) [9, 14]: 85
- Surinam Grass plant response rating [9, 15]: 98
- pest or weed control at 125 g/ha ([9]; Urochloa decumbens, post-emergence, Postemergence, scale 0 to 100 (0 no effect, 100 complete control), read-out: Plant response rating, Surinam Grass): 90%
- pest or weed control at 250 g/ha ([9]; Urochloa decumbens, post-emergence, Postemergence, 250 g ai/ha, scale 0 to 100 (0 no effect, 100 complete control), read-out: Plant response rating, Surinam Grass): 90%
- pest or weed control at 31 g/ha ([9]; Urochloa decumbens, pre-emergence, Preemergence, 31 g ai/ha, scale 0 to 100 (0 no effect, 100 complete control), read-out: Plant response rating, Surinam Grass): 0%
- pest or weed control at 62 g/ha ([9]; Urochloa decumbens, pre-emergence, Preemergence, 62 g ai/ha, scale 0 to 100 (0 no effect, 100 complete control), read-out: Plant response rating, Surinam Grass): 80%
- pest or weed control at 125 g/ha ([9]; Urochloa decumbens, pre-emergence, Preemergence, scale 0 to 100, 0 no effect, 100 complete control, read-out: Plant response rating, Surinam Grass): 95%
- Crabgrass, Large plant response rating (0 to 100 scale) [10, 14]: 90
- pest or weed control at 31 g/ha ([10]; Digitaria sanguinalis, post-emergence, postemergence, scale 0 to 100, 0 is no effect, 100 is complete control, read-out: Plant response rating, Crabgrass, Large): 85%
- pest or weed control at 125 g/ha ([10]; Digitaria sanguinalis, post-emergence, Postemergence, scale 0 to 100 (0 no effect, 100 complete control), read-out: Plant response rating, Crabgrass, Large): 95%
- pest or weed control at 250 g/ha ([10]; Digitaria sanguinalis, post-emergence, Postemergence, 250 g ai/ha, scale 0 to 100 (0 no effect, 100 complete control), read-out: Plant response rating, Crabgrass, Large): 95%
- pest or weed control at 31 g/ha ([10]; Digitaria sanguinalis, pre-emergence, Preemergence, scale 0 to 100 (0 no effect, 100 complete control), read-out: Plant response rating, Crabgrass, Large): 70%
- pest or weed control at 62 g/ha ([10]; Digitaria sanguinalis, pre-emergence, Preemergence, 62 g ai/ha, scale 0 to 100, 0 no effect, 100 complete control, read-out: Plant response rating, Crabgrass, Large): 98%
- pest or weed control at 125 g/ha ([10]; Digitaria sanguinalis, pre-emergence, Preemergence, scale 0 to 100, 0 no effect, 100 complete control, read-out: Plant response rating, Crabgrass, Large): 100%
- Crabgrass, Large plant response rating [10, 15]: 100
